In patent CN109260209A, “一种骨化三醇软胶囊及其制备方法” (CP Pharmaceutical Qingdao Co Ltd, priority 2018, dated 2019):

Legend:
Assay type in all cases: in vivo, SD rat
[1] = test system: ovariectomized osteoporotic rats (去卵巢骨质疏松大鼠); assay: Serum calcium in ovariectomized osteoporotic rats (Table 7); details: for serum calcium content (result in words): compared with negative control group
[2] = test system: ovariectomized osteoporotic rats (去卵巢骨质疏松大鼠); assay: Bone mineral content (total and trabecular) in ovariectomized osteoporotic rats (Table 3); details: oral once daily, 1 month; calcitriol 5 μg/kg, emodin 5 μg/kg, calcitriol + emodin 5 μg/kg; right tibia
[3] = test system: ovariectomized osteoporotic rats (去卵巢骨质疏松大鼠); assay: Bone mineral density (total and trabecular) in ovariectomized osteoporotic rats (Table 2); details: oral once daily, 1 month; calcitriol 5 μg/kg, emodin 5 μg/kg, calcitriol + emodin 5 μg/kg; right tibia
[4] = test system: ovariectomized osteoporotic rats (去卵巢骨质疏松大鼠); assay: Serum calcitonin in ovariectomized osteoporotic rats, radioimmunoassay (Table 4)
[5] = test system: ovariectomized osteoporotic rats (去卵巢骨质疏松大鼠); assay: Osteocalcin in ovariectomized osteoporotic rats, radioimmunoassay (Table 5)
[6] = test system: ovariectomized osteoporotic rats (去卵巢骨质疏松大鼠); assay: Uterine wet weight in ovariectomized osteoporotic rats (Table 10); details: three months after surgery; for uterine wet weight (result in words): compared with negative control group; for uterine wet weight: oral once daily, 1 month, nilestriol 1 mg/kg, calcitriol 5 μg/kg, emodin 5 μg/kg, calcitriol + emodin 5 μg/kg
[7] = test system: ovariectomized osteoporotic rats (去卵巢骨质疏松大鼠); assay: Serum estradiol in ovariectomized osteoporotic rats, radioimmunoassay (Table 6)
[8] = test system: ovariectomized osteoporotic rats (去卵巢骨质疏松大鼠); assay: Serum phosphorus in ovariectomized osteoporotic rats (Table 8); details: for serum phosphorus content (result in words): compared with negative control group
[9] = test system: ovariectomized osteoporotic rats (去卵巢骨质疏松大鼠); assay: Serum alkaline phosphatase in ovariectomized osteoporotic rats (Table 9); details: three months after surgery, compared with negative control group
[10] = three months after surgery, oral once daily, 1 month, nilestriol 1 mg/kg, calcitriol 5 μg/kg, emodin 5 μg/kg, calcitriol + emodin 5 μg/kg

| Structure (SMILES) | calcium content ([1]; before surgery (baseline)) | serum calcium content (result in words) ([1]; three months after surgery) | calcium content [1, 10] | bone mineral content (result in words) [2] | bone mineral density (result in words) [3] | serum calcitonin content ([4]; before surgery (baseline)) | serum calcitonin content (result in words) ([4]; three months after surgery) | serum calcitonin content [4, 10] | osteocalcin content ([5]; before surgery (baseline)) | osteocalcin content (result in words) ([5]; three months after surgery) | osteocalcin content [5, 10] | uterine wet weight (result in words) [6] | uterine wet weight [6] | serum estradiol content ([7]; before surgery (baseline)) | serum estradiol content (result in words) ([7]; three months after surgery) | serum estradiol content [7, 10] | phosphorus content ([8]; before surgery (baseline)) | serum phosphorus content (result in words) ([8]; three months after surgery) | phosphorus content [8, 10] | serum alkaline phosphatase content (result in words) [9] |
| --- | --- | --- | --- | --- | --- | --- | --- | --- | --- | --- | --- | --- | --- | --- | --- | --- | --- | --- | --- | --- |
| Cc1cc(O)c2c(c1)C(=O)c1cc(O)cc(O)c1C2=O [大黄素组, 大黄素] | 4.21 ± 0.24 mmol/L | 血清钙和磷含量与阴性对照组相比上升 | 4.21 ± 0.56 mmol/L | 产生一定的提高骨含量的作用 | 产生一定的增强骨密度的作用 | 222.43 ± 19.43 ng/L | 血清降钙素含量上升 | 265.24 ± 22.43 ng/L | 3.09 ± 1.21 ng/L | 骨钙素含量上升 | 3.38 ± 0.98 ng/L | 子宫湿重明显高于阴性对照组 | 89.34 ± 19.32 mg | 12.87 ± 2.01 pg/mL | 血清雌二醇含量上升 | 14.67 ± 1.76 pg/mL | 1.58 ± 0.43 mmol/L | 血清钙和磷含量与阴性对照组相比上升 | 1.73 ± 0.65 mmol/L | 与阴性对照组相比也出现下降 |
| C#C[C@]1(O)[C@H](O)C[C@H]2[C@@H]3CCc4cc(OC5CCCC5)ccc4[C@H]3CC[C@@]21C [阳性对照组, 尼尔雌醇] | 4.19 ± 0.43 mmol/L | 血清钙和磷含量与阴性对照组相比上升 | 4.65 ± 0.12 mmol/L |  |  | 231.35 ± 20.11 ng/L |  | 459.34 ± 11.43 ng/L | 2.98 ± 0.89 ng/L |  | 4.12 ± 1.32 ng/L | 子宫湿重明显高于阴性对照组 | 118.43 ± 12.43 mg | 12.65 ± 2.21 pg/mL |  | 20.43 ± 1.54 pg/mL | 1.55 ± 0.45 mmol/L | 血清钙和磷含量与阴性对照组相比上升 | 1.87 ± 0.46 mmol/L | 与阴性对照组相比出现下降 |
| C=C1/C(=C\C=C2/CCC[C@]3(C)[C@@H]([C@H](C)CCCC(C)(C)O)CC[C@@H]23)C[C@@H](O)C[C@@H]1O [骨化三醇组, 9,10-开环胆甾-5Z,7E,10(19)-三烯-1α,3β,25-三醇] | 4.10 ± 0.54 mmol/L | 血清钙和磷含量与阴性对照组相比上升 | 4.24 ± 0.41 mmol/L | 产生一定的提高骨含量的作用 | 产生一定的增强骨密度的作用 | 241.23 ± 11.43 ng/L | 血清降钙素含量上升 | 321.34 ± 13.43 ng/L | 3.22 ± 1.22 ng/L | 骨钙素含量上升 | 3.45 ± 1.21 ng/L | 子宫湿重明显高于阴性对照组 | 90.43 ± 10.43 mg | 13.21 ± 1.56 pg/mL | 血清雌二醇含量上升 | 15.34 ± 1.53 pg/mL | 1.61 ± 0.38 mmol/L | 血清钙和磷含量与阴性对照组相比上升 | 1.71 ± 0.53 mmol/L | 与阴性对照组相比也出现下降 |
